Reference: the supplement of paper PMC10307832

Columns and labels:
Experiment in all cases: relative viability (nuclei count vs DMSO), 5 days (fraction); higher = more cells survive
[1] = compound: C/C(=N\NC(=S)N1CCC1)/C2=CC=CC=N2 + C[C@@H](Oc1cc(-c2cnn(C3CCNCC3)c2)cnc1N)c1c(Cl)ccc(F)c1Cl [Crizotinib] (partner 1 µM)
In short: (§1)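 Lung cancer cell lines were seeded in 1536-well plates and dosed by pin tool the next day, with either a single drug or a fixed anchor-drug dose combined with five library-drug doses (not always all listed) spaced in √10 steps. Five days later, one step fixed the cells and stained their nuclei (final 0.05% Triton X-100, 1% formaldehyde, 1 ug/ml Hoechst), and nuclei were counted on 4× images. Relative viability is the nuclei count in treated wells divided by the count in vehicle wells, and each value is the median of duplicate plates.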

[2] = compound: C/C(=N\NC(=S)N1CCC1)/C2=CC=CC=N2 + Cc1nc(Nc2ncc(C(=O)Nc3c(C)cccc3Cl)s2)cc(N2CCN(CCO)CC2)n1 [Dasatinib] (partner 0.075 µM)
In short: as §1

[3] = compound: C/C(=N\NC(=S)N1CCC1)/C2=CC=CC=N2 + O=C(CCCCCCC(=O)Nc1ccccc1)NO [Vorinostat] (partner 1 µM)
In short: as §1

[4] = compound: C/C(=N\NC(=S)N1CCC1)/C2=CC=CC=N2 + CC1(C)CCC(c2ccc(Cl)cc2)=C(CN2CCN(c3ccc(C(=O)NS(=O)(=O)c4ccc(N[C@H](CCN5CCOCC5)CSc5ccccc5)c(S(=O)(=O)C(F)(F)F)c4)cc3)CC2)C1 [Navitoclax] (partner 0.5 µM)
In short: as §1

Cell Line	relative viability ([1]; first compound 0.05 µM)	relative viability ([1]; first compound 0.1581 µM)	relative viability ([1]; first compound 0.5 µM)	relative viability ([1]; first compound 1.581 µM)	relative viability ([1]; first compound 5 µM)	relative viability ([2]; first compound 0.05 µM)	relative viability ([2]; first compound 0.1581 µM)	relative viability ([2]; first compound 0.5 µM)	relative viability ([2]; first compound 1.581 µM)	relative viability ([2]; first compound 5 µM)	relative viability ([3]; first compound 0.05 µM)	relative viability ([3]; first compound 0.1581 µM)	relative viability ([3]; first compound 0.5 µM)	relative viability ([3]; first compound 1.581 µM)	relative viability ([3]; first compound 5 µM)	relative viability ([4]; first compound 0.05 µM)	relative viability ([4]; first compound 0.1581 µM)	relative viability ([4]; first compound 0.5 µM)	relative viability ([4]; first compound 1.581 µM)	relative viability ([4]; first compound 5 µM)
NCI-H1915	0.469	0.843	0.169	0.152	0.134	0.117	0.132	0.123	0.115	0.142	0.108	0.0989	0.117	0.11	0.118	0.522	0.742	0.169	0.15	0.137
NCI-H596	0.896	0.302	0.242	0.251	0.258	0.234	0.29	0.245	0.224	0.225	0.27	0.255	0.253	0.241	0.23	0.66	0.38	0.226	0.274	0.161
NCI-H2009	0.112	0.131	0.124	0.149	0.0903	0.112	0.143	0.145	0.122	0.103	0.0755	0.107	0.129	0.103	0.0974	0.1	0.136	0.0927	0.158	0.131
NCI-H2126	0.671	1.01	0.226	0.187	0.146	0.185	0.18	0.179	0.163	0.187	0.184	0.211	0.197	0.186	0.168	0.328	0.828	0.265	0.281	0.27
LXF-289	0.417	0.287	0.24	0.168	0.121	0.0597	0.064	0.0627	0.0541	0.0561	0.22	0.185	0.188	0.151	0.104	0.431	0.361	0.248	0.193	0.108
PC-14	0.215	0.11	0.0946	0.0983	0.0928	0.0371	0.0372	0.0336	0.023	0.0224	0.0311	0.0568	0.041	0.041	0.0331	0.0569	0.0561	0.0604	0.061	0.0618
HOP-62	0.218	0.626	0.0574	0.0819	0.0635	0.0752	0.0748	0.0769	0.0912	0.0784	0.0518	0.0592	0.0621	0.0833	0.0796	0.169	0.0748	0.0823	0.104	0.0618
SK-MES-1	0.231	0.214	0.179	0.167	0.177	0.145	0.155	0.133	0.107	0.126	0.198	0.208	0.182	0.177	0.183	0.186	0.21	0.18	0.13	0.185
